Measurements: patent US20230399311A1, “POLYMORPHS OF SUBSTITUTED ISOQUINOLINE-BASED RHO KINASE INHIBITORS” (BioAxone BioSciences, Inc., priority 2022, published 2023)

What was measured:
[1] = pH-dependent stability in buffer solutions; assay type: physicochemical
Procedure: The solutions were stored in vials at 25° C., 40° C., and 60° C. […] Purity was measured by HPLC.

[2] = Partition coefficient, octanol/water; assay type: physicochemical
Procedure: The partition coefficient of NRL-1049 adipate was determined according to the following procedure. In a 500 mL separation funnel, 120 mL water and 120 mL octanol were combined, mixed well, and allowed to separate into two layers. Approximately 100 mL of the organic phase layer and approximately 100 mL from the aqueous phase layer were removed and utilized in the following steps. Three 100 mL separation funnels were labeled as Sample 1, Sample 2, and Sample 3. […] The P values were as follows: Sample 1=0.0053, Sample 2=0.0049, Sample 3=0.0050.

For `C[C@@H](N)C1CCN(S(=O)(=O)c2cccc3cnccc23)CC1.O=C(O)CCCCC(=O)O` [NRL-1049 Adipate], the Appearance ([1]; Acetate Buffer, 1 Wk, 25° C.) was “No change”, the “Purity (% Area)” value ([1]; Acetate Buffer, 1 Wk, 25° C.) was 99.7 % Area and the pH ([1]; Acetate Buffer, 1 Wk, 25° C.) was 4.8. For the same compound, the Appearance ([1]; Acetate Buffer, 1 Wk, 40° C.) was “No change”, the “Purity (% Area)” value ([1]; Acetate Buffer, 1 Wk, 40° C.) was 99.7 % Area and the pH ([1]; Acetate Buffer, 1 Wk, 40° C.) was 4.7. The Appearance ([1]; Acetate Buffer, 1 Wk, 60° C.) was “No change”, the “Purity (% Area)” value ([1]; Acetate Buffer, 1 Wk, 60° C.) was 99.8 % Area and the pH ([1]; Acetate Buffer, 1 Wk, 60° C.) was 4.7. For the same compound, the Appearance ([1]; Acetate Buffer, 2 Wk, 25° C.) was “No change”, the “Purity (% Area)” value ([1]; Acetate Buffer, 2 Wk, 25° C.) was 99.7 % Area and the pH ([1]; Acetate Buffer, 2 Wk, 25° C.) was 4.6. The Appearance ([1]; Acetate Buffer, 2 Wk, 40° C.) was “No change”, the “Purity (% Area)” value ([1]; Acetate Buffer, 2 Wk, 40° C.) was 99.7 % Area and the pH ([1]; Acetate Buffer, 2 Wk, 40° C.) was 4.5. For the same compound, the Appearance ([1]; Acetate Buffer, 2 Wk, 60° C.) was “No change”, the “Purity (% Area)” value ([1]; Acetate Buffer, 2 Wk, 60° C.) was 99.7 % Area and the pH ([1]; Acetate Buffer, 2 Wk, 60° C.) was 4.5. For the same compound, the Appearance ([1]; Acetate Buffer, 3 Wk, 25° C.) was “No change”, the “Purity (% Area)” value ([1]; Acetate Buffer, 3 Wk, 25° C.) was 99.6 % Area and the pH ([1]; Acetate Buffer, 3 Wk, 25° C.) was 4.6. For the same compound, the Appearance ([1]; Acetate Buffer, 3 Wk, 40° C.) was “No change”, the “Purity (% Area)” value ([1]; Acetate Buffer, 3 Wk, 40° C.) was 99.7 % Area and the pH ([1]; Acetate Buffer, 3 Wk, 40° C.) was 4.5. For the same compound, the Appearance ([1]; Acetate Buffer, 3 Wk, 60° C.) was “No change”, the “Purity (% Area)” value ([1]; Acetate Buffer, 3 Wk, 60° C.) was 99.6 % Area and the pH ([1]; Acetate Buffer, 3 Wk, 60° C.) was 4.5. The Appearance ([1]; Acetate Buffer, Time 0) was “Clear”, the “Purity (% Area)” value ([1]; Acetate Buffer, Time 0) was 99.8 % Area and the pH ([1]; Acetate Buffer, Time 0) was 4.6. The Appearance ([1]; Hydroxide Buffer, 1 Wk, 25° C.) was “No change”, the “Purity (% Area)” value ([1]; Hydroxide Buffer, 1 Wk, 25° C.) was 99.7 % Area and the pH ([1]; Hydroxide Buffer, 1 Wk, 25° C.) was 1.4. For the same compound, the Appearance ([1]; Hydroxide Buffer, 1 Wk, 40° C.) was “No change”, the “Purity (% Area)” value ([1]; Hydroxide Buffer, 1 Wk, 40° C.) was 99.8 % Area and the pH ([1]; Hydroxide Buffer, 1 Wk, 40° C.) was 1.4. The Appearance ([1]; Hydroxide Buffer, 1 Wk, 60° C.) was “No change”, the “Purity (% Area)” value ([1]; Hydroxide Buffer, 1 Wk, 60° C.) was 99.6 % Area and the pH ([1]; Hydroxide Buffer, 1 Wk, 60° C.) was 1.3. For the same compound, the Appearance ([1]; Hydroxide Buffer, 2 Wk, 25° C.) was “No change”, the “Purity (% Area)” value ([1]; Hydroxide Buffer, 2 Wk, 25° C.) was 99.7 % Area and the pH ([1]; Hydroxide Buffer, 2 Wk, 25° C.) was 1.4. For the same compound, the Appearance ([1]; Hydroxide Buffer, 2 Wk, 40° C.) was “No change”, the “Purity (% Area)” value ([1]; Hydroxide Buffer, 2 Wk, 40° C.) was 99.6 % Area and the pH ([1]; Hydroxide Buffer, 2 Wk, 40° C.) was 1.4. For the same compound, the Appearance ([1]; Hydroxide Buffer, 2 Wk, 60° C.) was “No change”, the “Purity (% Area)” value ([1]; Hydroxide Buffer, 2 Wk, 60° C.) was 99.6 % Area and the pH ([1]; Hydroxide Buffer, 2 Wk, 60° C.) was 1.3. The Appearance ([1]; Hydroxide Buffer, 3 Wk, 25° C.) was “No change”, the “Purity (% Area)” value ([1]; Hydroxide Buffer, 3 Wk, 25° C.) was 99.6 % Area and the pH ([1]; Hydroxide Buffer, 3 Wk, 25° C.) was 1.4. The Appearance ([1]; Hydroxide Buffer, 3 Wk, 40° C.) was “No change”, the “Purity (% Area)” value ([1]; Hydroxide Buffer, 3 Wk, 40° C.) was 99.6 % Area and the pH ([1]; Hydroxide Buffer, 3 Wk, 40° C.) was 1.4. For the same compound, the Appearance ([1]; Hydroxide Buffer, 3 Wk, 60° C.) was “No change”, the “Purity (% Area)” value ([1]; Hydroxide Buffer, 3 Wk, 60° C.) was 99.6 % Area and the pH ([1]; Hydroxide Buffer, 3 Wk, 60° C.) was 1.3. For the same compound, the Appearance ([1]; Hydroxide Buffer, Time 0) was “Clear”, the “Purity (% Area)” value ([1]; Hydroxide Buffer, Time 0) was 99.7 % Area and the pH ([1]; Hydroxide Buffer, Time 0) was 1.3. The Appearance ([1]; Phosphate Buffer, 1 Wk, 25° C.) was “No change”, the “Purity (% Area)” value ([1]; Phosphate Buffer, 1 Wk, 25° C.) was 99.4 % Area and the pH ([1]; Phosphate Buffer, 1 Wk, 25° C.) was 7.0. The Appearance ([1]; Phosphate Buffer, 1 Wk, 40° C.) was “No change”, the “Purity (% Area)” value ([1]; Phosphate Buffer, 1 Wk, 40° C.) was 95.9 % Area and the pH ([1]; Phosphate Buffer, 1 Wk, 40° C.) was 7.0. For the same compound, the Appearance ([1]; Phosphate Buffer, 1 Wk, 60° C.) was “No change”, the “Purity (% Area)” value ([1]; Phosphate Buffer, 1 Wk, 60° C.) was 91.3 % Area and the pH ([1]; Phosphate Buffer, 1 Wk, 60° C.) was 6.9. The Appearance ([1]; Phosphate Buffer, 2 Wk, 25° C.) was “No change”, the “Purity (% Area)” value ([1]; Phosphate Buffer, 2 Wk, 25° C.) was 95.4 % Area and the pH ([1]; Phosphate Buffer, 2 Wk, 25° C.) was 6.7. The Appearance ([1]; Phosphate Buffer, 2 Wk, 40° C.) was “No change”, the “Purity (% Area)” value ([1]; Phosphate Buffer, 2 Wk, 40° C.) was 94.4 % Area and the pH ([1]; Phosphate Buffer, 2 Wk, 40° C.) was 6.7. The Appearance ([1]; Phosphate Buffer, 2 Wk, 60° C.) was “No change”, the “Purity (% Area)” value ([1]; Phosphate Buffer, 2 Wk, 60° C.) was 83.0 % Area and the pH ([1]; Phosphate Buffer, 2 Wk, 60° C.) was 6.7. For the same compound, the Appearance ([1]; Phosphate Buffer, 3 Wk, 25° C.) was “No change”, the “Purity (% Area)” value ([1]; Phosphate Buffer, 3 Wk, 25° C.) was 94.9 % Area and the pH ([1]; Phosphate Buffer, 3 Wk, 25° C.) was 6.7. The Appearance ([1]; Phosphate Buffer, 3 Wk, 40° C.) was “No change”, the “Purity (% Area)” value ([1]; Phosphate Buffer, 3 Wk, 40° C.) was 91.4 % Area and the pH ([1]; Phosphate Buffer, 3 Wk, 40° C.) was 6.7. The Appearance ([1]; Phosphate Buffer, 3 Wk, 60° C.) was “No change”, the “Purity (% Area)” value ([1]; Phosphate Buffer, 3 Wk, 60° C.) was 78.8 % Area and the pH ([1]; Phosphate Buffer, 3 Wk, 60° C.) was 6.8. For the same compound, the Appearance ([1]; Phosphate Buffer, Time 0) was “Clear”, the “Purity (% Area)” value ([1]; Phosphate Buffer, Time 0) was 99.5 % Area and the pH ([1]; Phosphate Buffer, Time 0) was 6.7. The “Stability as a function of pH (in words)” value ([1]; pH 1.2 solution) was “most stable”, the “Stability as a function of pH (in words)” value ([1]; pH 6.8 buffer) was “least stable” and the “Partition coefficient P (organic phase/aqueous phase)” value ([2]; Sample 1: 40 mL aqueous phase, 10 mL organic phase (octanol/water)) was 0.0053. The “Partition coefficient P (organic phase/aqueous phase)” value ([2]; Sample 2: 25 mL aqueous phase, 25 mL organic phase (octanol/water)) was 0.0049, the “Partition coefficient P (organic phase/aqueous phase)” value ([2]; Sample 3: 10 mL aqueous phase, 40 mL organic phase (octanol/water)) was 0.0050 and the “Hydrophilicity (in words)” value ([2]; from octanol/water P values) was “highly hydrophilic”.
